{"source": "patent US20150258059A1", "about": "“ANTIMICROBIAL AND RADIOPROTECTIVE COMPOUNDS” (BioDiem, Ltd, priority 2001, published 2015)", "key": {"Bacillus sp. B-575": {"tested_on": "Bacillus sp. B-575", "assay": "Sensitivity of strains: suppression of growth; note: key: + sensitive strains; + moderately sensitive strains; − stable strains", "type": "cell-based", "details": "Compound (1) 1.0%; antibiotics disc method"}, "[1]": {"tested_on": "Salmonella paratyphi M-16469", "assay": "Agar diffusion assay", "type": "cell-based"}, "[2]": {"tested_on": "Torula histolytica (Cryptococcus)", "assay": "Sensitivity of pathogenic fungi", "type": "cell-based", "details": "Inoculation 10^5"}, "[3]": {"tested_on": "Corynebacterium xerosis RMIT", "assay": "NCCLS broth microdilution MIC/MBC", "type": "cell-based", "details": "for MIC: Corynebacterium xerosis"}, "Haemophilus influenzae": {"tested_on": "Haemophilus influenzae", "assay": "NCCLS broth microdilution MIC/MBC", "type": "cell-based"}, "Salmonella typhimurium": {"tested_on": "Salmonella typhimurium", "assay": "NCCLS broth microdilution MIC/MBC", "type": "cell-based"}, "Trichophyton rubrum": {"tested_on": "Trichophyton rubrum", "assay": "NCCLS broth macro-dilution MIC/MFC (RPMI)", "type": "cell-based", "details": "Table 10, 7 day, 30° C."}, "Rhodotorula rubra": {"tested_on": "Rhodotorula rubra", "assay": "NCCLS broth macro-dilution MIC/MFC (RPMI)", "type": "cell-based", "details": "Table 10, 4 day, 30° C."}, "Aspergillus fumigatus": {"tested_on": "Aspergillus fumigatus", "assay": "microbe, parasite or virus in culture", "type": "cell-based", "details": "for MIC: Aspergillus fumigatus"}, "Rhizopus stolonifer": {"tested_on": "Rhizopus stolonifer", "assay": "microbe, parasite or virus in culture", "type": "cell-based", "details": "for MIC: Rhizopus stolonifer"}, "M. catarrhalis": {"tested_on": "M. catarrhalis", "assay": "Antibacterial activity in the presence of blood, macrodilution", "type": "cell-based", "details": "for MIC: Moraxella catarrhalis"}, "[4]": {"assay": "Blood levels after single-dose oral administration, UV spectroscopy", "type": "in vivo, Sprague-Dawley rats", "details": "for concentration at 4 h / concentration at 8 h: Sprague-Dawley, rat, serum, oral, read-out: Blood Level of Compound (1), Mean", "protocol": "The aim of this example was to establish absorption and blood levels of Compound (1) in the rat after a single-dose, oral administration.\nSprague-Dawley rats (6 w/o, delivered 30 Jan, 2001) were acclimatized for 6 days in the Animal Facility under standardized environmental conditions (22° C. ±3° C., rel hum 30-70%, artificial light, 12 hrs light/12 hrs dark). Rats were fed a conventional laboratory diet with food and water ad lib and caged 5 rats per cage.\nCompound (1) was prepared as an aqueous suspension in sterile LPW. At higher concentrations the suspension was sonicated to reduce particle size sufficiently to pass through the gavage needle.\nCompound (1) suspensions and the water control were administered at approx […], in a single. One control and five treatment rats were weighed immediately before each dose administration, the dose volume calculated and the dose delivered by gavage (22 gauge stainless steel, smooth-balled end attached to a syringe).\nApproximately 100-200 μL of blood (microfuge tube) was removed from the tail at 4 and 8 hours. Tails were prewarmed using a heat lamp and snipped at the tip with a large scalpel. Blood was massaged into a microfuge tube. Twenty four hour blood samples were not attempted because of the difficulty of snipping scarred tails and the distress caused to rats.\nBlood was allowed to clot, centrifuged in a microfuge for 3 minutes (speed 14) and the serum separated and stored at −20° C.\nSamples for treatment groups and for controls were thus pooled and a mean level of Compound (1) for each treatment group determined.\nCompound (1) was extracted (x2) from serum by toluene and absorbance measured at 370 nm (Hitachi U2000). A spiked control using 100 μg/mL Compound (1) in 50% methanol/water (V/V) and untreated controls were also assayed."}, "F. chlamydosporum": {"tested_on": "F. chlamydosporum", "assay": "M38-P microdilution MIC/MFC", "type": "cell-based", "details": "Table 16, 48 h, 35° C."}, "Rhizopus stoloniefer": {"tested_on": "Rhizopus stoloniefer", "assay": "M38-P microdilution MIC/MFC", "type": "cell-based", "details": "Table 16, 48 h, 35° C."}, "Epidermophyton floccosum": {"tested_on": "Epidermophyton floccosum", "assay": "M38-P microdilution MIC/MFC", "type": "cell-based", "details": "Table 16, Dermatophytes"}, "[5]": {"tested_on": "Aspergillus fumigatus asexual exospores", "assay": "Sporicidal activity", "type": "cell-based", "details": "512 μg/mL in water+Tween-20; 24 hrs and 6 hrs", "protocol": "Aspergillus fumigatus asexual exospores\nCompound (1) in water+Tween-20® was tested for sporicidal activity up to 24 hrs."}, "Acinetobacter B-681": {"tested_on": "Acinetobacter B-681", "assay": "Agar diffusion assay"}, "[6]": {"tested_on": "Enterococcus faecalis museum strain", "assay": "Impregnated agar serial double dilutions", "details": "meat peptone agar"}, "[7]": {"tested_on": "Klebsiella pneumoniae strain 312", "assay": "Impregnated agar serial double dilutions", "details": "meat peptone agar"}, "Enterococcus faecalis": {"tested_on": "Enterococcus faecalis", "assay": "Agar plug diffusion, zone of retardation", "details": "plug impregnated at 0.5%"}, "[8]": {"tested_on": "Campylobacter jejuni 54/1-2", "assay": "MIC/MMC against clinical strains of Campylobacter spp.", "details": "Table 18; clinical strain isolated from humans"}, "[9]": {"details": "Table 19, 24 H, 35° C., O2-MICRO METHOD"}, "[10]": {"details": "Table 20, […], after 12 weeks continuous exposure, read-out: MIC Final"}, "[11]": {"details": "Table 20, […], parent strain, read-out: MIC Initial"}, "[12]": {"details": "before exposure, MHB, read-out: Standard MIC Initial"}}, "note": "Like-named read-outs stand apart in the source and are kept apart here. Marks after values point to notes of the source that are not given here."}
{"smiles": "C/C(=C\\c1ccc2c(c1)OCO2)[N+](=O)[O-]", "note": "[Compound (1)]", "values": [{"measurement": "Suppression of Growth (+/−)", "setting": "Bacillus sp. B-575", "value": "+"}, {"measurement": "Diameter of zone of Growth inhibition", "setting": "[1]; Concentration in disc 0.1%", "value": "28# mm"}, {"measurement": "Diameter of zone of Growth inhibition", "setting": "[1]; Concentration in disc 1.0%", "value": "30# mm"}, {"measurement": "Diameter of zone of Growth inhibition", "setting": "[1]; Concentration in disc 2.0%", "value": "36# mm"}, {"measurement": "Number of microbes: Growth", "setting": "[2]; 0.1%", "value": 0}, {"measurement": "Number of microbes: Retardation", "setting": "[2]; 0.1%", "value": "10^5"}, {"measurement": "Number of microbes: Growth", "setting": "[2]; 0.5%", "value": 0}, {"measurement": "Number of microbes: Retardation", "setting": "[2]; 0.5%", "value": "10^5"}, {"measurement": "Number of microbes: Growth", "setting": "[2]; 2.0%", "value": 0}, {"measurement": "Number of microbes: Retardation", "setting": "[2]; 2.0%", "value": "10^5"}, {"measurement": "MIC", "setting": "[3]; Table 9, 35° C., 24 hours", "value": 32.2, "unit": "µg/mL"}, {"measurement": "MIC", "setting": "[3]; Table 17, 2 or 3 replicates", "value": 32, "unit": "µg/mL"}, {"measurement": "MMC", "setting": "[3]; Table 9, 35° C., 24 hours", "value": 32.16, "unit": "µg/mL"}, {"measurement": "MMC", "setting": "[3]; Table 17, 2 or 3 replicates", "value": 32, "unit": "µg/mL"}, {"measurement": "MIC", "setting": "Haemophilus influenzae; Haemophilus influenzae, Table 9, 35° C., 24 hours, read-out: MIC", "value": 0.125, "unit": "µg/mL"}, {"measurement": "MIC", "setting": "Haemophilus influenzae; Haemophilus influenzae, Table 17, 2 or 3 replicates, read-out: MIC", "value": 0.125, "unit": "µg/mL"}, {"measurement": "MMC", "setting": "Haemophilus influenzae; Table 9, 35° C., 24 hours", "value": 0.125, "unit": "µg/mL"}, {"measurement": "MMC", "setting": "Haemophilus influenzae; Table 17, 2 or 3 replicates", "value": 0.125, "unit": "µg/mL"}, {"measurement": "MIC", "setting": "Haemophilus influenzae; [9]", "value": 0.125, "unit": "µg/mL"}, {"measurement": "MMC", "setting": "Haemophilus influenzae; [9]", "value": 0.125, "unit": "µg/mL"}, {"measurement": "MIC", "setting": "Salmonella typhimurium; Salmonella enterica, TYPHIMURIUM, 24 h", "value": 256, "unit": "µg/mL"}, {"measurement": "MMC", "setting": "Salmonella typhimurium; Table 9, 35° C., 24 hours", "value": ">512", "unit": "µg/mL"}, {"measurement": "MMC", "setting": "Trichophyton rubrum", "value": 256, "unit": "µg/mL"}, {"measurement": "MIC", "setting": "Trichophyton rubrum; Trichophyton rubrum, 168 h", "value": 1, "unit": "µg/mL"}, {"measurement": "MIC", "setting": "Rhodotorula rubra; Rhodotorula, 96 h", "value": 8, "unit": "µg/mL"}, {"measurement": "MMC", "setting": "Rhodotorula rubra", "value": 8, "unit": "µg/mL"}, {"measurement": "MIC", "setting": "Aspergillus fumigatus; [10]", "value": 8, "unit": "µg/mL"}, {"measurement": "MIC", "setting": "Aspergillus fumigatus; [11]", "value": 8, "unit": "µg/mL"}, {"measurement": "MIC", "setting": "Aspergillus fumigatus; [12]", "value": 8, "unit": "µg/mL"}, {"measurement": "7-Day MIC Range", "setting": "Aspergillus fumigatus; to Wk 5", "value": "8-32 to Wk 5 μg/mL"}, {"measurement": "MIC", "setting": "Rhizopus stolonifer; [10]", "value": 16, "unit": "µg/mL"}, {"measurement": "MIC", "setting": "Rhizopus stolonifer; [11]", "value": 4, "unit": "µg/mL"}, {"measurement": "MIC", "setting": "Rhizopus stolonifer; [12]", "value": 4, "unit": "µg/mL"}, {"measurement": "7-Day MIC Range", "setting": "Rhizopus stolonifer; to Wk 5", "value": "4-32 to Wk 5 μg/mL"}, {"measurement": "MMC", "setting": "M. catarrhalis; 5% blood", "value": 8, "unit": "µg/mL"}, {"measurement": "MMC", "setting": "M. catarrhalis; 10% plasma", "value": 8, "unit": "µg/mL"}, {"measurement": "MIC", "setting": "M. catarrhalis; 5% blood", "value": 4, "unit": "µg/mL"}, {"measurement": "MIC", "setting": "M. catarrhalis; 10% plasma", "value": 8, "unit": "µg/mL"}, {"measurement": "MIC", "setting": "M. catarrhalis; — (no plasma or blood)", "value": 32, "unit": "µg/mL"}, {"measurement": "Blood Level of Compound (1), Mean", "setting": "[4]; 1250 mg/kg, 4 + 8 h", "value": 27000, "unit": "ng/mL"}, {"measurement": "concentration at 4 h", "setting": "[4]; 500 mg/kg, 500 mg/kg fasted", "value": 12000, "unit": "ng/mL"}, {"measurement": "concentration at 8 h", "setting": "[4]; 500 mg/kg, 500 mg/kg fasted", "value": 14000, "unit": "ng/mL"}, {"measurement": "concentration at 4 h", "setting": "[4]; 500 mg/kg, 500 mg/kg fed", "value": 8000, "unit": "ng/mL"}, {"measurement": "concentration at 8 h", "setting": "[4]; 500 mg/kg, 500 mg/kg fed", "value": 17000, "unit": "ng/mL"}, {"measurement": "concentration at 4 h", "setting": "[4]; 1000 mg/kg, 1000 mg/kg fasted", "value": 26000, "unit": "ng/mL"}, {"measurement": "concentration at 8 h", "setting": "[4]; 1000 mg/kg, 1000 mg/kg fasted", "value": 21000, "unit": "ng/mL"}, {"measurement": "oral dose reaching the blood", "setting": "[4]; absorption from the gastrointestinal tract", "value": "approximately 2%"}, {"measurement": "MMC", "setting": "F. chlamydosporum", "value": 8, "unit": "µg/mL"}, {"measurement": "MIC", "setting": "F. chlamydosporum; read-out: MIC", "value": 8, "unit": "µg/mL"}, {"measurement": "MIC", "setting": "Rhizopus stoloniefer; Rhizopus, read-out: MIC", "value": 4, "unit": "µg/mL"}, {"measurement": "MMC", "setting": "Rhizopus stoloniefer", "value": 16, "unit": "µg/mL"}, {"measurement": "MIC", "setting": "Epidermophyton floccosum; Epidermophyton floccosum", "value": 0.5, "unit": "µg/mL"}, {"measurement": "MMC", "setting": "Epidermophyton floccosum", "value": 16, "unit": "µg/mL"}, {"measurement": "sporicidal activity", "setting": "[5]", "value": "killed A. fumigatus exospores at 24 hrs but not 6 hrs"}, {"measurement": "Diameter of zone of Growth inhibition", "setting": "Acinetobacter B-681; Concentration in disc 0.1%", "value": "32# mm"}, {"measurement": "Diameter of zone of Growth inhibition", "setting": "Acinetobacter B-681; Concentration in disc 1.0%", "value": "35# mm"}, {"measurement": "Diameter of zone of Growth inhibition", "setting": "Acinetobacter B-681; Concentration in disc 2.0%", "value": "38# mm"}, {"measurement": "Minimal % Compound (1) giving complete inhibition of test culture", "setting": "[6]", "value": 0.015, "unit": "%"}, {"measurement": "Minimal % Compound (1) giving complete inhibition of test culture", "setting": "[7]", "value": 0.12, "unit": "%"}, {"measurement": "Size of zone of retardation of the growth", "setting": "Enterococcus faecalis", "value": 6}, {"measurement": "MMC", "setting": "[8]", "value": 2}]}
